# Test results reported in ChEMBL document CHEMBL1201862, “PubChem BioAssay data set” (2004).
#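 Cells were grown in 96-well plates and exposed to each compound for 48 hours at five concentrations; endpoints were interpolated linearly between bracketing concentrations, or set to the highest concentration if not reached. GI50: concentration for 50% inhibition of growth.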 Active and inactive are the calls of the source. No stated cut-off is given here; in the data, active = GI50 up to about 1.1 µM and inactive = higher.
# Experiments:
# Test in all cases: NCI anticancer screen, dose series, 48 h
# TK-10 = tested on: TK-10
# IGROV-1 = tested on: IGROV-1
# Malme-3M = tested on: Malme-3M
# NCI-H522 = tested on: NCI-H522
# BT-549 = tested on: BT-549
# NCI-H23 = tested on: NCI-H23
# UACC-257 = tested on: UACC-257
# A498 = tested on: A498
# HOP-62 = tested on: HOP-62
# MDA-MB-231 = tested on: MDA-MB-231
# T47D = tested on: T47D
# SF-539 = tested on: SF-539
# SK-MEL-2 = tested on: SK-MEL-2
# OVCAR-8 = tested on: OVCAR-8
# M14 = tested on: M14
# NCI-H226 = tested on: NCI-H226
# Hs-578T = tested on: Hs-578T
# HCT-15 = tested on: HCT-15
# HT-29 = tested on: HT-29
# U-251 = tested on: U-251
# MDA-MB-435 = tested on: MDA-MB-435
# HL-60 = tested on: HL-60
# CAKI-1 = tested on: CAKI-1
# A549 = tested on: A549
# KM12 = tested on: KM12
# 786-0 = tested on: 786-0
# K562 = tested on: K562
# EKVX = tested on: EKVX
# DU-145 = tested on: DU-145
# NCI/ADR-RES = tested on: NCI/ADR-RES
# OVCAR-3 = tested on: OVCAR-3
# SNB-19 = tested on: SNB-19
# SK-OV-3 = tested on: SK-OV-3
# RPMI-8226 = tested on: RPMI-8226
# HOP-92 = tested on: HOP-92
# SW-620 = tested on: SW-620
# COLO 205 = tested on: COLO 205
# UO-31 = tested on: UO-31
# NCI-H460 = tested on: NCI-H460
# MCF7 = tested on: MCF7
# OVCAR-5 = tested on: OVCAR-5
# ACHN = tested on: ACHN
# SR = tested on: SR
# HCT-116 = tested on: HCT-116
# SN12C = tested on: SN12C
# SF-295 = tested on: SF-295
# CCRF-CEM = tested on: CCRF-CEM
# SF-268 = tested on: SF-268
# SK-MEL-5 = tested on: SK-MEL-5
# PC-3 = tested on: PC-3
# UACC-62 = tested on: UACC-62
# LOX IMVI = tested on: LOX IMVI
# OVCAR-4 = tested on: OVCAR-4
# SK-MEL-28 = tested on: SK-MEL-28
# RXF 393 = tested on: RXF 393
# HCC 2998 = tested on: HCC 2998
# MOLT-4 = tested on: MOLT-4
# SNB-75 = tested on: SNB-75
# MDA-N = tested on: MDA-N
structure (smiles),measurement,setting,value
CO[C@]12C[C@H](CNC(=O)c3ccc[nH]3)O[C@H]1NC(=O)N2,GI50,TK-10,> 100 µM (inactive)
same,GI50,IGROV-1,> 100 µM (inactive)
same,GI50,Malme-3M,> 100 µM (inactive)
same,GI50,NCI-H522,> 100 µM (inactive)
same,GI50,BT-549,> 100 µM (inactive)
same,GI50,NCI-H23,> 100 µM (inactive)
same,GI50,UACC-257,> 100 µM (inactive)
same,GI50,A498,> 100 µM (inactive)
same,GI50,HOP-62,> 100 µM (inactive)
same,GI50,MDA-MB-231,> 100 µM (inactive)
same,GI50,T47D,> 100 µM (inactive)
same,GI50,SF-539,> 100 µM (inactive)
same,GI50,SK-MEL-2,> 100 µM (inactive)
same,GI50,OVCAR-8,> 100 µM (inactive)
same,GI50,M14,> 100 µM (inactive)
same,GI50,NCI-H226,> 100 µM (inactive)
same,GI50,Hs-578T,> 100 µM (inactive)
same,GI50,HCT-15,> 100 µM
same,GI50,HT-29,33.7 µM (inactive)
same,GI50,U-251,> 100 µM (inactive)
same,GI50,MDA-MB-435,> 100 µM (inactive)
same,GI50,HL-60,> 100 µM (inactive)
same,GI50,CAKI-1,> 100 µM (inactive)
same,GI50,A549,> 100 µM (inactive)
same,GI50,KM12,> 100 µM (inactive)
same,GI50,786-0,> 100 µM (inactive)
same,GI50,K562,> 100 µM (inactive)
same,GI50,EKVX,> 100 µM (inactive)
same,GI50,DU-145,> 100 µM (inactive)
same,GI50,NCI/ADR-RES,> 100 µM (inactive)
same,GI50,OVCAR-3,> 100 µM (inactive)
same,GI50,SNB-19,> 100 µM (inactive)
same,GI50,SK-OV-3,> 100 µM (inactive)
same,GI50,RPMI-8226,> 100 µM (inactive)
same,GI50,HOP-92,> 100 µM (inactive)
same,GI50,SW-620,> 100 µM (inactive)
same,GI50,COLO 205,> 100 µM (inactive)
same,GI50,UO-31,> 100 µM (inactive)
same,GI50,NCI-H460,> 100 µM (inactive)
same,GI50,MCF7,> 100 µM (inactive)
same,GI50,OVCAR-5,> 100 µM (inactive)
same,GI50,ACHN,> 100 µM (inactive)
same,GI50,SR,9.31 µM (inactive)
same,GI50,HCT-116,> 100 µM (inactive)
same,GI50,SN12C,> 100 µM (inactive)
same,GI50,SF-295,> 100 µM (inactive)
same,GI50,CCRF-CEM,> 100 µM (inactive)
same,GI50,SF-268,> 100 µM (inactive)
same,GI50,SK-MEL-5,> 100 µM (inactive)
same,GI50,PC-3,> 100 µM (inactive)
same,GI50,UACC-62,> 100 µM (inactive)
same,GI50,LOX IMVI,> 100 µM (inactive)
O=S(=O)(Nc1nccs1)c1ccc(Nc2nc(-c3cccs3)nc3ccc(I)cc23)cc1,GI50,TK-10,9.51 µM (inactive)
same,GI50,IGROV-1,17.4 µM (inactive)
same,GI50,Malme-3M,14.3 µM (inactive)
same,GI50,NCI-H522,19.4 µM (inactive)
same,GI50,BT-549,11.9 µM (inactive)
same,GI50,NCI-H23,37.4 µM (inactive)
same,GI50,OVCAR-4,26.9 µM (inactive)
same,GI50,SK-MEL-28,21.4 µM (inactive)
same,GI50,RXF 393,36.5 µM (inactive)
same,GI50,UACC-257,4.49 µM (inactive)
same,GI50,HOP-62,16.3 µM (inactive)
same,GI50,T47D,8.43 µM (inactive)
same,GI50,HCC 2998,13.2 µM (inactive)
same,GI50,SF-539,17.8 µM (inactive)
same,GI50,SK-MEL-2,38.5 µM (inactive)
same,GI50,OVCAR-8,22.2 µM (inactive)
same,GI50,M14,22.4 µM (inactive)
same,GI50,NCI-H226,35.1 µM (inactive)
same,GI50,HCT-15,32.1 µM
same,GI50,HT-29,18.7 µM (inactive)
same,GI50,U-251,11.5 µM (inactive)
same,GI50,MDA-MB-435,11.8 µM (inactive)
same,GI50,HL-60,42.3 µM (inactive)
same,GI50,CAKI-1,9.91 µM (inactive)
same,GI50,A549,26.7 µM (inactive)
same,GI50,KM12,7.36 µM (inactive)
same,GI50,786-0,15.5 µM (inactive)
same,GI50,K562,14.8 µM (inactive)
same,GI50,EKVX,2.22 µM (inactive)
same,GI50,DU-145,9.48 µM (inactive)
same,GI50,NCI/ADR-RES,> 75.5 µM (inactive)
same,GI50,OVCAR-3,14.2 µM (inactive)
same,GI50,SNB-19,14.5 µM (inactive)
same,GI50,SK-OV-3,24.7 µM (inactive)
same,GI50,RPMI-8226,4.74 µM (inactive)
same,GI50,HOP-92,9.35 µM (inactive)
same,GI50,SW-620,13 µM (inactive)
same,GI50,COLO 205,6.34 µM (inactive)
same,GI50,UO-31,17 µM (inactive)
same,GI50,NCI-H460,9.73 µM (inactive)
same,GI50,MCF7,8.28 µM (inactive)
same,GI50,OVCAR-5,40.2 µM (inactive)
same,GI50,ACHN,29.6 µM (inactive)
same,GI50,SR,22.9 µM (inactive)
same,GI50,MOLT-4,14.2 µM (inactive)
same,GI50,SNB-75,36.4 µM (inactive)
same,GI50,HCT-116,8.97 µM (inactive)
same,GI50,SN12C,25.4 µM (inactive)
same,GI50,SF-295,11.8 µM (inactive)
same,GI50,CCRF-CEM,3.48 µM (inactive)
same,GI50,SF-268,12.6 µM (inactive)
same,GI50,SK-MEL-5,8.18 µM (inactive)
same,GI50,MDA-N,32.5 µM (inactive)
same,GI50,PC-3,5.12 µM (inactive)
same,GI50,UACC-62,19.2 µM (inactive)
same,GI50,LOX IMVI,14.6 µM (inactive)
N=C(N)N/N=C/c1c(-c2ccc(Cl)c([N+](=O)[O-])c2)nc2sccn12,GI50,TK-10,1.76 µM (inactive)
same,GI50,IGROV-1,1.72 µM (inactive)
same,GI50,Malme-3M,1.91 µM (inactive)
same,GI50,NCI-H522,2.01 µM (inactive)
same,GI50,BT-549,1.89 µM (inactive)
same,GI50,NCI-H23,1.85 µM (inactive)
same,GI50,OVCAR-4,1.79 µM (inactive)
same,GI50,SK-MEL-28,4.08 µM (inactive)
same,GI50,RXF 393,1.22 µM (inactive)
same,GI50,UACC-257,1.91 µM (inactive)
same,GI50,A498,1.72 µM (inactive)
same,GI50,HOP-62,1.85 µM (inactive)
same,GI50,MDA-MB-231,1.74 µM (inactive)
same,GI50,T47D,0.493 µM (active)
same,GI50,HCC 2998,1.6 µM (inactive)
same,GI50,SF-539,1.82 µM (inactive)
same,GI50,SK-MEL-2,1.85 µM (inactive)
same,GI50,OVCAR-8,2.11 µM (inactive)
same,GI50,M14,1.8 µM (inactive)
same,GI50,NCI-H226,1.92 µM (inactive)
same,GI50,Hs-578T,2.05 µM (inactive)
same,GI50,HCT-15,2.21 µM
same,GI50,HT-29,1.52 µM (inactive)
same,GI50,U-251,1.67 µM (inactive)
same,GI50,MDA-MB-435,0.6 µM (active)
same,GI50,HL-60,1.96 µM (inactive)
same,GI50,CAKI-1,1.69 µM (inactive)
same,GI50,A549,1.75 µM (inactive)
same,GI50,KM12,0.861 µM (active)
same,GI50,786-0,1.73 µM (inactive)
same,GI50,K562,0.845 µM (active)
same,GI50,EKVX,1.85 µM (inactive)
same,GI50,DU-145,1.78 µM (inactive)
same,GI50,NCI/ADR-RES,> 100 µM (inactive)
same,GI50,OVCAR-3,1.34 µM (inactive)
same,GI50,SNB-19,1.31 µM (inactive)
same,GI50,SK-OV-3,1.78 µM (inactive)
same,GI50,RPMI-8226,2.06 µM (inactive)
same,GI50,HOP-92,1.87 µM (inactive)
same,GI50,SW-620,1.53 µM (inactive)
same,GI50,COLO 205,1.31 µM (inactive)
same,GI50,UO-31,1.85 µM (inactive)
same,GI50,NCI-H460,1.79 µM (inactive)
same,GI50,MCF7,1.37 µM (inactive)
same,GI50,OVCAR-5,1.71 µM (inactive)
same,GI50,ACHN,1.71 µM (inactive)
same,GI50,SR,2.05 µM (inactive)
same,GI50,MOLT-4,1.71 µM (inactive)
same,GI50,SNB-75,1.62 µM (inactive)
same,GI50,HCT-116,1.37 µM (inactive)
same,GI50,SN12C,1.82 µM (inactive)
same,GI50,SF-295,1.75 µM (inactive)
same,GI50,CCRF-CEM,1.41 µM (inactive)
same,GI50,SF-268,1.92 µM (inactive)
same,GI50,SK-MEL-5,1.73 µM (inactive)
same,GI50,PC-3,1.65 µM (inactive)
same,GI50,UACC-62,1.8 µM (inactive)
same,GI50,LOX IMVI,2.22 µM (inactive)
